Data: patent US4371537A, “Sulfur-substituted phenoxypyridines having antiviral activity” (The Dow Chemical Company, priority 1981, dated 1983)
In brackets after ≈: the same amount, converted by molar mass. Read-outs that look alike come from different tables or passages of the source.

Legend:
[1] = tested on: rhinovirus type 1A (RV-1A); test: Tissue culture testing, rhinovirus type 1A in HeLa cells; assay type: cell-based; settings: 48 and 72 hours, NA = not active at the standard test conditions; for EC50: Enterovirus, read-out: RV-1A: lowest concentration of the compound necessary to cause a 50 percent reduction in cytopathic effect
Experimental: (§1) Monolayered HeLa cells in 16 millimeter (mm) tissue culture dishes were treated with 1 ml of culture medium (Eagles medium supplemented with fetal calf serum) containing subject compound at an appropriate concentration or containing no compound at all. Culture media such as those described herein are more fully described in standard texts, as for example, Kuchler's Biochemical Methods in Cell Culture and Virology, Dowden, Hutchinson and Ross, Inc., Stroudsberg, PA (1977). Following treatment, cells were challenged with 0.05 ml of rhinovirus type 1A (RV-1A), rhinovirus type 2 (RV-2) or Coxsackie A21 virus (Cox A21) in culture medium. Some of the compounds were also tested against rhinovirus type 5 (RV-5), rhinovirus type 8 (RV-8) or rhinovirus type 64 (RV-64). Cell controls received no viruses.
(§2) ^2 Lowest concentration of the compound (μg/ml) necessary to cause

[2] = tested on: rhinovirus type 2 (RV-2); test: Tissue culture testing, rhinovirus type 2 in HeLa cells; assay type: cell-based; settings: 48 and 72 hours, NA = not active at the standard test conditions; for EC50: Enterovirus, read-out: RV-2: lowest concentration of the compound necessary to cause a 50 percent reduction in cytopathic effect
Experimental: as §1, §2

[3] = tested on: Coxsackie A21 virus (Cox A21); test: Tissue culture testing, Coxsackie A21 virus in HeLa cells; assay type: cell-based; settings: 48 and 72 hours, NA = not active at the standard test conditions; for EC50: read-out: Cox A21: lowest concentration of the compound necessary to cause a 50 percent reduction in cytopathic effect
Experimental: as §1, §2

[4] = tested on: Coxsackie A21 virus; test: Continuous Oral Feeding test in mice challenged IP with Coxsackie A21 virus; assay type: in vivo; settings: for Continuous Oral Feeding X^2 (chi-square, deaths vs control): 0.06 % in diet, 240 h
Experimental: Some of the compounds were also tested in animals utilizing the following procedure, hereainafter referred to as the "Continuous Oral Feeding" test. Coxsackie A21 virus grown on HeLa cells was administered at a concentration that produces 80 to 100% deaths in mice weighing 8 to 12 grams within 10 days, when the mice are injected (IP) with 0.2 ml of virus preparation. Mice were placed on diets containing test compound dispersed in plain commercially available rodent mash chow at a concentration of 0.06% (weight percent) on day 0. On day 1 the mice were challenged with the virus preparation, 0.2 ml/mouse, (IP). Deaths in both control and experimental groups were recorded for the 10 days and the results analyzed by a chi-square (.chi.^2) test. Chi-square values greater than 3.84 indicate the compound is active (95% confidence level).

[5] = Cytotoxicity in tissue culture testing (HeLa monolayers); assay type: cell-based; settings: human, HeLa cells
Experimental: as §1
^1 Cytotoxicity figures represent the concentration of the compound, […]

[6] = observed at 48 and 72 hours post-treatment, read-out: Cytotoxicity: concentration of the compound found to be toxic to the cell

Row | Compound | RV-1A: lowest concentration of the compound necessary to cause a 50 percent reduction in cytopathic effect [1] | RV-2: lowest concentration of the compound necessary to cause a 50 percent reduction in cytopathic effect [2] | Cox A21: lowest concentration of the compound necessary to cause a 50 percent reduction in cytopathic effect [3] | Continuous Oral Feeding: toxicity of the test compound at the indicated dosage ([4]; 0.06% in diet, "toxic" = significantly toxic at the indicated dosage) | Continuous Oral Feeding X^2 (chi-square, deaths vs control) [4] | EC50 [2] | MCC [5, 6] | EC50 [3] | EC50 [1] | MCC ([5]; GI = growth inhibition, read-out: Cytotoxicity: concentration at which the compound inhibited the growth of the tissue culture (GI))
1 | CC(=O)c1ccc(Oc2cccc(S(C)(=O)=O)n2)cc1 [1-(4-((6-(methylsulfonyl)-2-pyridinyl)oxy)phenyl)ethanone] | not active | not active | not active |  |  |  |  |  |  | 
2 | CS(=O)(=O)c1ccc(Oc2ccc(Oc3ccccc3)cc2)nc1 [Example 28, 5-(methylsulfonyl)-2-(4-phenoxyphenoxy)pyridine] |  |  |  | toxic | 6.249 | 25 µg/mL (≈ 73.2 µM) | > 100 µg/mL | 50 µg/mL (≈ 146 µM) |  | 
3 | CC(C)(C)c1ccc(Oc2ccc(S(C)(=O)=O)cn2)cc1 [Example 33, 2-(4-(1,1-dimethylethyl)phenoxy)-5-(methylsulfonyl)pyridine] |  |  |  |  | 4.042 | 12.5 µg/mL (≈ 40.9 µM) | > 100 µg/mL |  |  | 
4 | CC(=O)c1ccc(Oc2ccc(S(C)(=O)=O)cn2)cc1 [Example 34, 1-(4-((5-(methylsulfonyl)-2-pyridinyl)oxy)phenyl)ethanone] |  |  |  |  | 1.727 | 12.5 µg/mL (≈ 42.9 µM) | > 50 µg/mL |  | 25 µg/mL (≈ 85.8 µM) | 
5 | CSc1ccc(Oc2ccc(S(C)(=O)=O)cn2)cc1 [Example 37, 2-(4-(methylthio)phenoxy)-5-(methylsulfonyl)pyridine] |  |  |  |  |  | < 2 µg/mL | > 50 µg/mL | 3 µg/mL (≈ 10.2 µM) | < 3 µg/mL | 
6 | CCS(=O)(=O)c1ccc(Oc2ccc3c(c2)OCO3)nc1 [Example 41, 5-(ethylsulfonyl)-2-(3,4-methylenedioxyphenoxy)pyridine] |  |  |  |  |  | 25 µg/mL (≈ 81.3 µM) | ≥ 50 µg/mL |  |  | 
7 | CCS(=O)(=O)c1ccc(Oc2cc(Cl)c(Cl)cc2Cl)nc1 [Example 48, 5-(ethylsulfonyl)-2-(2,4,5-trichlorophenoxy)pyridine] |  |  |  |  |  | 3.12 µg/mL (≈ 8.52 µM) | > 50 µg/mL | 6.25 µg/mL (≈ 17 µM) | < 3.12 µg/mL | 
8 | CC(=O)c1ccc(Oc2ccc(S(=O)(=O)C(C)C)cn2)cc1 [Example 52, 1-(4-((5-((1-methylethyl)sulfonyl)-2-pyridinyl)oxy)phenyl)ethanone] |  |  |  |  | 1.140 | 50 µg/mL (≈ 157 µM) | ≥ 50 µg/mL | 25 µg/mL (≈ 78.3 µM) | 50 µg/mL (≈ 157 µM) | 
9 | CCCCCCS(=O)(=O)c1ccc(Oc2ccc(Br)cc2)nc1 [Example 53, 2-(4-bromophenoxy)-5-(n-hexylsulfonyl)pyridine] |  |  |  |  | 2.925 | 25 µg/mL (≈ 62.8 µM) | > 50 µg/mL | 12.5 µg/mL (≈ 31.4 µM) | 25 µg/mL (≈ 62.8 µM) | 
10 | CCCCCCS(=O)(=O)c1ccc(Oc2ccc(Cl)c(Cl)c2)nc1 [Example 54, 2-(3,4-dichlorophenoxy)-5-(n-hexylsulfonyl)pyridine] |  |  |  |  | 0.162 | 12.5 µg/mL (≈ 32.2 µM) | > 50 µg/mL |  | 12.5 µg/mL (≈ 32.2 µM) | 
11 | CC(=O)c1ccc(Oc2ccc(S(=O)(=O)C3CCCCC3)cn2)cc1 [Example 56, 1-(4-((5-(cyclohexylsulfonyl)-2-pyridinyl)oxy)phenyl)ethanone] |  |  |  |  | 0.019 | ~12.5 µg/mL (≈ 34.8 µM) | 12.5 µg/mL | 3.12 µg/mL (≈ 8.69 µM) | ~12.5 µg/mL (≈ 34.8 µM) | 
12 | O=S(=O)(c1ccc(Oc2ccc(Br)cc2)nc1)C1CCCCC1 [Example 57, 2-(4-bromophenoxy)-5-(cyclohexylsulfonyl)pyridine] |  |  |  |  |  | 25 µg/mL (≈ 63.1 µM) | 50 µg/mL | 6.25 µg/mL (≈ 15.8 µM) | 25 µg/mL (≈ 63.1 µM) | 
13 | O=S(=O)(c1ccc(Oc2ccc(Cl)c(Cl)c2)nc1)C1CCCCC1 [Example 58, 2-(3,4-dichlorophenoxy)-5-(cyclohexylsulfonyl)pyridine] |  |  |  |  |  | 12.5 µg/mL (≈ 32.4 µM) | 50 µg/mL | 25 µg/mL (≈ 64.7 µM) | 25 µg/mL (≈ 64.7 µM) | 
14 | O=C(c1ccccc1)c1ccc(Oc2ccc(S(=O)(=O)C3CCCCC3)cn2)cc1 [Example 59, (4-((5-(cyclohexylsulfonyl)-2-pyridinyl)oxy)phenyl)phenylmethanone] |  |  |  |  |  | 12.5 µg/mL (≈ 29.7 µM) | 12.5 µg/mL | < 3.12 µg/mL | 3.12 µg/mL (≈ 7.41 µM) | 
15 | O=C(c1ccccc1)c1ccc(Oc2ccc(S(=O)(=O)Cc3ccccc3)cn2)cc1 [Example 62, phenyl(4-((5-((phenylmethyl)sulfonyl)-2-pyridinyl)oxy)phenyl)methanone] |  |  |  |  | 0.066 |  |  | < 3.12 µg/mL | 25 µg/mL (≈ 58.2 µM) | 50 µg/mL
16 | CS(=O)(=O)c1ccnc(Oc2ccc(Cl)c(Cl)c2)c1 [Example 65, 2-(3,4-dichlorophenoxy)-4-(methylsulfonyl)pyridine] |  |  |  |  |  | 25 µg/mL (≈ 78.6 µM) | 50 µg/mL | < 3.12 µg/mL | 25 µg/mL (≈ 78.6 µM) | 
17 | CS(=O)(=O)c1cc(Oc2ccc(Cl)c(Cl)c2)ccn1 [Example 66, 4-(3,4-dichlorophenoxy)-2-(methylsulfonyl)pyridine] |  |  |  |  |  | 12.5 µg/mL (≈ 39.3 µM) | 25 µg/mL | 12.5 µg/mL (≈ 39.3 µM) | 12.5 µg/mL (≈ 39.3 µM) | 
18 | CS(=O)(=O)c1cccc(Oc2ccc(Br)cc2)n1 [Example 70, 2-(4-bromophenoxy)-6-(methylsulfonyl)pyridine] |  |  |  |  | 0.035 | 25 µg/mL (≈ 76.2 µM) | 25 µg/mL |  | 25 µg/mL (≈ 76.2 µM) | 
19 | CS(=O)(=O)c1cccnc1Oc1ccc(Cl)c(Cl)c1 [Example 71, 2-(3,4-dichlorophenoxy)-3-(methylsulfonyl)pyridine] |  |  |  |  |  | 50 µg/mL (≈ 157 µM) | 50 µg/mL | 50 µg/mL (≈ 157 µM) | 25 µg/mL (≈ 78.6 µM) | 
20 | CS(=O)(=O)c1cccnc1Oc1ccc(C(=O)c2ccccc2)cc1 [Example 72, (4-((3-(methylsulfonyl)-2-pyridinyl)oxy)phenyl)phenylmethanone] |  |  |  |  |  | 25 µg/mL (≈ 70.7 µM) | 25 µg/mL | 12.5 µg/mL (≈ 35.4 µM) | 25 µg/mL (≈ 70.7 µM) | 
21 | CCS(=O)(=O)c1cccnc1Oc1ccc(Cl)c(Cl)c1 [Example 73, 2-(3,4-dichlorophenoxy)-3-(ethylsulfonyl)pyridine] |  |  |  |  |  | 25 µg/mL (≈ 75.3 µM) | 25 µg/mL |  | 25 µg/mL (≈ 75.3 µM) | 
22 | CSc1cncc(Oc2ccc(Cl)c(Cl)c2)c1 [Example 75, 3-(3,4-dichlorophenoxy)-5-(methylthio)pyridine] |  |  |  |  |  | 6.25 µg/mL (≈ 21.8 µM) | 6.25 µg/mL | 3.12 µg/mL (≈ 10.9 µM) | 6.25 µg/mL (≈ 21.8 µM) | 
23 | C[S+]([O-])c1cncc(Oc2ccc(Cl)c(Cl)c2)c1 (centres unmarked) [Example 76, 3-(3,4-dichlorophenoxy)-5-(methylsulfinyl)pyridine] |  |  |  |  |  | 6.25 µg/mL (≈ 20.7 µM) | 25 µg/mL | 25 µg/mL (≈ 82.7 µM) | 12.5 µg/mL (≈ 41.4 µM) | 
24 | CS(=O)(=O)c1cncc(Oc2ccc(Cl)c(Cl)c2)c1 [Example 77, 3-(3,4-dichlorophenoxy)-5-(methylsulfonyl)pyridine] |  |  |  |  |  | 12.5 µg/mL (≈ 39.3 µM) | > 50 µg/mL | 3.12 µg/mL (≈ 9.82 µM) | 6.25 µg/mL (≈ 19.6 µM) | 
